The values below come from ChEMBL document CHEMBL1153891, “Bioactivity-guided isolation of cytotoxic constituents of Brucea javanica collected in Vietnam” (2009).

Test [1] has as its system MDR. Nature of the test: Inhibition of MDR pump assessed as potentiation of bruceantin-induced cytotoxicity against human MCF7 cells at 20 ug/mL after 2 days by sulforhodamine B assay. It is filed as cell-based.
Another test concerns Lu1. Nature of the test: Cytotoxicity against human Lu1 cells after 2 days by sulforhodamine B assay. In kind it is functional. The settings on record: Lu1, 48 h, read-out: ED50 (the source's name).
In test [2] the test system is MCF7. Nature of the test: Cytotoxicity against human MCF7 cells after 2 days by sulforhodamine B assay. It is filed as functional. The settings on record: MCF7, 48 h, read-out: ED50 (the source's name).
Another test relates to LNCaP. The experiment in a line: Cytotoxicity against hormone-dependent human LNCAP cells after 2 days by sulforhodamine B assay. To be noted: 48 h, read-out: ED50 (the source's name). It is filed as functional.
The subject of test [3] is MDR. Nature of the test: Inhibition of MDR pump assessed as potentiation of bruceine A-induced cytotoxicity against human MCF7 cells at 20 ug/mL after 2 days by sulforhodamine B assay. In kind it is cell-based.
The subject of test [4] is MCF7. The experiment in a line: Ratio ED50 for human MCF7 cells to ED50 for human MCF7 cells in presence of 43 uM (-)-hydnocarpin. It is filed as functional.
The test system of test [5] is MCF7. The experiment in a line: Cytotoxicity against human MCF7 cells after 2 days by sulforhodamine B assay in presence of 43 uM (-)-hydnocarpin. In kind it is functional. To be noted: MCF7, 48 h, read-out: ED50 (the source's name).

As to `COc1cc([C@@H]2Oc3ccc(-c4cc(=O)c5c(O)cc(O)cc5o4)cc3O[C@H]2CO)ccc1O`, the ED50 with MDR [1] and in the test with MDR [3] was more than 10 µM in each case. The EC50 in the test with Lu1, in the test on MCF7 [2] and with LNCaP was more than 10 µM throughout.
As for `CCCCCC(=O)O[C@@H]1C[C@]2(C)C(=CC[C@H]2[C@@H]2C[C@@H]([C@@H]3OC3(C)C)O[C@@H]2OC(C)=O)[C@@]2(C)[C@H]1[C@@]1(C)C=CC(=O)C(C)(C)[C@@H]1C[C@H]2OC(C)=O`, the EC50 with Lu1, with MCF7 [2] and in the test on LNCaP was more than 10 µM each time.
`C/C=C(\C)C(=O)O[C@@H]1C[C@@]2(C)[C@H]([C@@H]3C[C@@H]([C@@H]4OC4(C)C)O[C@@H]3OC(C)=O)CC[C@]2(C)[C@@H]2CC=C3C(C)(C)C(=O)C[C@H](O)[C@]3(C)[C@H]21` [BRUCEAJAVANINONE A]: the EC50 with Lu1, in the test on MCF7 [2] and in the test on LNCaP was more than 10 µM each time.
For `CCCCCC(=O)O[C@@H]1C[C@]2(C)C(=CC[C@H]2[C@@H]2C[C@@H]([C@@H]3OC3(C)C)O[C@@H]2OC(C)=O)[C@]2(C)[C@H](O)C[C@H]3C(C)(C)C(=O)C=C[C@]3(C)[C@@H]12` [BRUCEAJAVANONE A], the EC50 in the test with Lu1, with MCF7 [2] and in the test on LNCaP was more than 10 µM each time.
`C/C=C(\C)C(=O)O[C@@H]1C[C@]2(C)C(=CC[C@H]2[C@@H]2C[C@@H]([C@@H]3OC3(C)C)O[C@@H]2OC(C)=O)[C@@]2(C)[C@H]1[C@@]1(C)C=CC(=O)C(C)(C)[C@@H]1C[C@H]2OC(C)=O` [BRUCEAJAVANONE B]: the EC50 in the test on Lu1, in the test on MCF7 [2] and with LNCaP was more than 10 µM each time.
As for `C/C=C(\C)C(=O)O[C@@H]1C[C@]2(C)C(=CC[C@H]2[C@@H]2C[C@@H]([C@@H]3OC3(C)C)O[C@H]2OC)[C@]2(C)[C@H](OC(C)=O)C[C@H]3C(C)(C)C(=O)C[C@H](O)[C@]3(C)[C@@H]12` [BRUCEAJAVANONE C], the EC50 in the test with Lu1, in the test on MCF7 [2] and in the test on LNCaP was more than 10 µM throughout.
`COC(=O)[C@@]12OC[C@]34[C@H]([C@@H](O)[C@@H]1O)[C@@]1(C)CC(=O)C(O)=C(C)[C@@H]1C[C@H]3OC(=O)[C@H](OC(=O)/C=C(\C)C(C)C)[C@@H]24` [BRUCEANTIN]: the EC50 stood at 0.012 µM with Lu1, 0.00027 µM in the test with MCF7 [5], 0.002 µM with MCF7 [2] and 0.011 µM in the test with LNCaP. Also, the “Ratio ED50” value in the test with MCF7 [4] was determined as 7.4.
For `COC(=O)[C@@]12OC[C@]34[C@H]([C@@H](O)[C@@H]1O)[C@@]1(C)CC(=O)C(O)=C(C)[C@@H]1C[C@H]3OC(=O)[C@H](OC(=O)CC(C)C)[C@@H]24` [BRUCEINE A], the EC50 in the test on Lu1 was found to be 0.079 µM; in the test with MCF7 [5] it was 0.0015 µM; in the test with MCF7 [2], 0.015 µM; in the test on LNCaP, 0.096 µM. Also, the “Ratio ED50” value in the test with MCF7 [4] is given as 10.
Regarding `CC[C@@]1(O)C(=O)OCc2c1cc1n(c2=O)Cc2cc3ccccc3nc2-1` [CAMPTOTHECIN], the EC50 in the test with Lu1, in the test on MCF7 [2] and with LNCaP was more than 10 µM throughout.
With `CC(=O)O[C@H]1C(=O)[C@@]2(C)[C@H]([C@H](OC(=O)c3ccccc3)[C@]3(O)C[C@H](OC(=O)[C@H](O)[C@@H](NC(=O)c4ccccc4)c4ccccc4)C(C)=C1C3(C)C)[C@]1(OC(C)=O)CO[C@@H]1C[C@@H]2O` [PACLITAXEL], the EC50 in the test on Lu1, with MCF7 [2] and with LNCaP was more than 10 µM throughout.
